Active and inactive are the calls of the source. No cut-off for these calls is given here.
Experiments:
[1] = target: Programmed cell death protein 1/Programmed cell death 1 ligand 1 (Homo sapiens, UniProt Q9NZQ7); assay: Inhibition of interaction of Fc(IgG1)-Avi)-(Biotin)-fused human PDL1 (19 to 239 residues)/Eu-labeled human PD-1 (25 to 167 residues) expressed in HEK293 cells pretreated with PDL1 for 15 mins followed by PD-1 addition and measured after 90 mins by TR-FRET assay; type: cell-based
Sequence of Programmed cell death protein 1/Programmed cell death 1 ligand 1 (Q15116 whole entry, the tested form may be a part): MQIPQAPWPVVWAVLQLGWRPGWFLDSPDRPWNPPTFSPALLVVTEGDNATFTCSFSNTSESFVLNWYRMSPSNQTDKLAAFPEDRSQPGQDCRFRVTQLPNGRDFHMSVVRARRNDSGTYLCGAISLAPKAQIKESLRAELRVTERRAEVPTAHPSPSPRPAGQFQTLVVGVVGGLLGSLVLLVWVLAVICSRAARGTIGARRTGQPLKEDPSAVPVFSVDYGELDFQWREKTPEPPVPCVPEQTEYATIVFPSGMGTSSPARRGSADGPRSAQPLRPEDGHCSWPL
Sequence of Programmed cell death protein 1/Programmed cell death 1 ligand 1 (Q9NZQ7 whole entry, the tested form may be a part): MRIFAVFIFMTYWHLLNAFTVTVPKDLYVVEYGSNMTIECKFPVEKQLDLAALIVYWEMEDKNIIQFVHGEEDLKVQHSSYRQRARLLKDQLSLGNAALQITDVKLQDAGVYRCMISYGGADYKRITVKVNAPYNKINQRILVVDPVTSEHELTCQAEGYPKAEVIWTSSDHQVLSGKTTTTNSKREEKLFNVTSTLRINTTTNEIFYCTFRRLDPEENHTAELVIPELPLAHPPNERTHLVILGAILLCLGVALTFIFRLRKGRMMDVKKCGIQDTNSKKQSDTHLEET

[2] = target: T1, Programmed cell death 1 ligand 1 (Homo sapiens, UniProt Q9NZQ7); assay: Inhibition of human recombinant PDL1 expressed in HEK293 cells assessed as restoration of Jurkat T cell activity by measuring increase in IFNgamma secretion at 1 uM incubated for 24 hrs by ELISA; type: cell-based; parameters: Activity: scale not given: the % may be the effect or the level left
T1 sequence (Q9NZQ7 whole entry): as the sequence (Q9NZQ7 whole entry, the tested form may be a part) above

CT26 [3] = assay: Antitumor activity against mouse CT26 cells xenografted in BALB/c mouse assessed as inhibition of tumor growth at 20 mg/kg, ip qd for 2 weeks; type: functional, organism-based
CT26 [4] = assay: Antitumor immunity against mouse CT26 cells xenografted in BALB/c mouse assessed as increase in infiltration of CD8+ cells in tumor at 20 mg/kg, ip qd for 2 weeks by immunohistochemical staining based analysis; type: functional, organism-based
CT26 [5] = assay: In vivo inhibition of PDL1 in BALB/c mouse xenografted with mouse CT26 cells assessed as induction of PDL1 degradation by measuring decrease in PDL1 protein expression in tumor at 20 mg/kg, ip qd for 2 weeks by immunohistochemical staining based analysis; type: functional, organism-based
NCM460 = assay: Cytotoxicity against human NCM460 cells assessed as cell viability at 0.625 to 10 uM incubated for 24 hrs by CCK8 assay; type: toxicity, cell-based; details: ncm460, 24 h, dose 0.625-10 µM
CT26 [6] = assay: Antitumor activity against mouse CT26 cells xenografted in BALB/c mouse assessed as inhibition of tumor growth administered ip qd for 2 weeks; type: functional, organism-based; details: dose 10-20 mg/kg
[7] = target: T1, Programmed cell death 1 ligand 1; assay: Inhibition of human recombinant PDL1 expressed in HEK293 cells assessed as restoration of Jurkat T cell activity by measuring increase in IL-2 secretion at 2.5 uM incubated for 24 hrs in presence of PD-L1v242 by ELISA; type: cell-based
CT26 [8] = assay: Antitumor immunity against mouse CT26 cells xenografted in BALB/c mouse assessed as increase in infiltration of CD8+ cells in tumor administered ip qd for 2 weeks by immunohistochemical staining based analysis; type: functional, organism-based; details: dose 10-20 mg/kg
L02 = assay: Cytotoxicity against human L02 cells assessed as cell viability at 0.625 to 10 uM incubated for 24 hrs by CCK8 assay; type: toxicity, cell-based; details: l02, 24 h, dose 0.625-10 µM
[9] = target: T1, Programmed cell death 1 ligand 1; assay: Inhibition of PDL1 in human MDA-MB-231 cells assessed as induction of PDL1 degradation at 1 to 5 uM incubated for 24 hrs by western blot analysis; type: cell-based; details: dose 1-5 µM
[10] = target: Programmed cell death 1 ligand 1 (Mus musculus, UniProt Q9EP73); assay: Binding affinity to RED-NHS dye labeled mouse PDL1 incubated for 10 mins away from light by microscale thermophoresis analysis
Sequence of Programmed cell death 1 ligand 1 (Mus musculus, UniProt Q9EP73) (Q9EP73 whole entry): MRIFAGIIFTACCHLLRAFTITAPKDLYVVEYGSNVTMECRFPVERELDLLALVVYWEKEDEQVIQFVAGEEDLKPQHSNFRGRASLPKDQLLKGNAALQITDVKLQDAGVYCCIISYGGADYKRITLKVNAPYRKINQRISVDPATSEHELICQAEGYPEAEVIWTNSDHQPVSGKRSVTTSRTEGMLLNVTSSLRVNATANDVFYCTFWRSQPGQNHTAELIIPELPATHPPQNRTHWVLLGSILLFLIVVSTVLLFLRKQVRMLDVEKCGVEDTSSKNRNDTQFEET

[11] = Half life in Sprague-Dawley rat at 5 mg/kg, iv by LC-MS/MS analysis; type: ADME, organism-based; details: in vivo
[12] = Toxicity against BALB/c mouse xenografted with mouse CT26 cells assessed as mortality at 10 to 20 mg/kg, ip qd for 2 weeks; type: organism-based; details: in vivo, 336 h, dose 10-20 mg/kg
[13] = Tmax in Sprague-Dawley rat at 5 mg/kg, iv by LC-MS/MS analysis; type: ADME, organism-based; details: in vivo
[14] = target: T1, Programmed cell death 1 ligand 1; assay: Inhibition of PDL1 in human RKO cells assessed as […] PDL1 internalization into cytosol incubated for 12 hrs by immunofluorescence assay; type: subcellular; details: dose 0.5-2 µM
[15] = Half life in Sprague-Dawley rat at 25 mg/kg, po by LC-MS/MS analysis; type: ADME, organism-based; details: in vivo
[16] = Tmax in Sprague-Dawley rat at 25 mg/kg, po by LC-MS/MS analysis; type: ADME, organism-based; details: in vivo
[17] = target: T1, Programmed cell death 1 ligand 1; assay: Inhibition of PDL1 in human RKO cells assessed as […] PDL1 internalization into cytosol at 2 uM by immunofluorescence assay; type: subcellular; details: time 2-6 hrs, TDE = time-dependent effect
[18] = target: T1, Programmed cell death 1 ligand 1; assay: Inhibition of human recombinant PDL1 expressed in HEK293 cells assessed as restoration of Jurkat T cell activity by measuring increase in IL-2 secretion incubated for 24 hrs by ELISA; type: cell-based; details: dose 0.3125-2.5 µM
[19] = target: T1, Programmed cell death 1 ligand 1; assay: Binding affinity to RED-NHS dye labeled human PDL1 incubated for 10 mins away from light by microscale thermophoresis analysis
CT26 [20] = assay: In vivo inhibition of PDL1 in BALB/c mouse xenografted with mouse CT26 cells assessed as induction of PDL1 degradation by measuring decrease in PDL1 protein expression in tumor at 10 to 20 mg/kg, ip qd for 2 weeks by immunohistochemical staining based analysis; type: functional, organism-based; details: dose 10-20 mg/kg
CT26 [21] = assay: Antitumor activity against mouse CT26 cells xenografted in BALB/c mouse assessed as decrease in tumor weight at 20 mg/kg, ip qd for 2 weeks; type: functional; details: CT26, 336 h
[22] = AUC(0 to t) in Sprague-Dawley rat at 25 mg/kg, po by LC-MS/MS analysis; type: ADME, organism-based; parameters: dose 25 mg/kg, route po; details: in vivo
[23] = Cmax in Sprague-Dawley rat at 25 mg/kg, po by LC-MS/MS analysis; type: ADME, organism-based; parameters: dose 25 mg/kg, route po; details: in vivo
MDA-MB-231 = assay: Antitumor activity against human MDA-MB-231 cells cocultured with CD3/CD28/CD2 T cell activator stimulated human PBMC cells assessed as increase in tumor cell viability incubated for 12 hrs by LDH assay; details: MDA-MB-231, 12 h
[24] = target: T1, Programmed cell death 1 ligand 1; assay: Inhibition of PDL1 (unknown origin) assessed as induction of PDL1 dimerization at protein to compound concentration ratio of 1:2 incubated for overnight by SEC analysis
CT26 [25] = assay: Antitumor activity against mouse CT26 cells xenografted in BALB/c mouse assessed as tumor shrinkage and reduction of tumor growth at 20 mg/kg, ip qd for 2 weeks by Hematoxylin-eosin staining based analysis; type: functional, organism-based
[26] = Cmax in Sprague-Dawley rat at 5 mg/kg, iv by LC-MS/MS analysis; type: ADME, organism-based; parameters: dose 5 mg/kg, route iv; details: in vivo
[27] = Oral bioavailability in Sprague-Dawley rat at 25 mg/kg by LC-MS/MS analysis; type: ADME, organism-based; details: in vivo
CT26 [28] = assay: Antitumor activity against mouse CT26 cells xenografted in BALB/c mouse assessed as decrease in tumor weight at 10 mg/kg, ip qd for 2 weeks; type: functional; details: CT26, 336 h
[29] = AUC(0 to t) in Sprague-Dawley rat at 5 mg/kg, iv by LC-MS/MS analysis; type: ADME, organism-based; parameters: dose 5 mg/kg, route iv; details: in vivo
[30] = Toxicity against BALB/c mouse xenografted with mouse CT26 cells assessed as body weight loss at 10 to 20 mg/kg, ip qd for 2 weeks; type: organism-based; details: in vivo, 336 h, dose 10-20 mg/kg

## Cc1c(-c2nnc(Nc3ccc(CN4CC[C@@H](O)C4)cc3)o2)cccc1-c1cccc(-c2nnc(Nc3cccc(CN4CC[C@@H](O)C4)c3)o2)c1C
[1]
  IC50: 1180 nM

## COc1nc(O[C@H]2CCc3c(-c4cccc(C(=O)Nc5ccc(CNCCO)cn5)c4Cl)cccc32)c(Cl)cc1CNCCO
[1]
  IC50: 4.3 nM

## Cc1c(-c2nnc(Nc3cccc(CNCCO)c3)o2)cccc1-c1cccc(-c2nnc(Nc3cccc(CNCCO)c3)o2)c1C
[1]
  IC50: 78.4 nM

## COc1nc(O[C@H]2CCc3c(-c4cccc(C(=O)Nc5ccc(CNCCO)c(F)n5)c4Cl)cccc32)c(Cl)cc1CNCCO
[1]
  IC50: 16.1 nM

## COc1nc(O[C@H]2CCc3c(-c4cccc(C(=O)Nc5ccc(CNCCN(C)C)cn5)c4Cl)cccc32)c(Cl)cc1CNCCN(C)C
[1]
  IC50: 4.2 nM

## Cc1c(-c2nnc(Nc3cccc(CN4CC[C@@H](O)C4)c3)o2)cccc1-c1cccc(-c2nnc(Nc3cccc(CN4CC[C@@H](O)C4)c3)o2)c1C
[1]
  IC50: 30.9 nM
[2]
  inhibition: Active

## COc1nc(O[C@H]2CCc3c(-c4cccc(C(=O)Nc5ccc(CN6CC(O)C6)cn5)c4Cl)cccc32)c(Cl)cc1CN1CC(O)C1
[1]
  IC50: 6.3 nM

## COc1nc(O[C@H]2CCc3c(-c4cccc(C(=O)Nc5ccc(CN6CCC7(CC6)CNC(=O)C7)cn5)c4Cl)cccc32)c(Cl)cc1CN1CCC2(CC1)CNC(=O)C2
[1]
  IC50: 17.2 nM

## CC(=O)NCCNCc1cccc(Nc2nnc(-c3cccc(-c4cccc(-c5nnc(Nc6cccc(CNCCO)c6)o5)c4C)c3C)o2)c1
[1]
  IC50: 38 nM

## Cc1c(Nc2nccc3cc(CN4CC[C@@H](O)C4)cnc23)cccc1-c1cccc(-c2nc3cc(CN4CC[C@@H](C(=O)O)C4)cc(C#N)c3o2)c1C
CT26 [3]
  Activity: Active
CT26 [4]
  Activity: Active
CT26 [5]
  inhibition: inactive

## Cc1c(-c2nnc(Nc3cccc(CNCC(=O)O)c3)o2)cccc1-c1cccc(-c2nnc(Nc3cccc(CNCC(=O)O)c3)o2)c1C
[1]
  IC50: 68.8 nM

## COc1nc(NC(=O)c2cccc(-c3cccc4c3CC[C@@H]4Oc3nc(OC)c(CNCCNC(C)=O)cc3Cl)c2Cl)ccc1CNCCNC(C)=O
[1]
  IC50: 22.1 nM

## Cc1c(-c2nnc(Nc3cccc(CNCCO)c3)o2)cccc1-c1cccc(C(=O)Nc2ccc(CNCCO)cn2)c1Cl
[1]
  IC50: 8.2 nM

## COc1nc(O[C@H]2CCc3c(-c4cccc(C(=O)Nc5ccc(CNCCNC(C)=O)c(F)n5)c4Cl)cccc32)c(Cl)cc1CNCCNC(C)=O
[1]
  IC50: 15.6 nM

## COc1nc(NC(=O)c2cccc(-c3cccc4c3CC[C@@H]4Oc3nc(OC)c(CNCCO)cc3Cl)c2Cl)ccc1CNCCO
[1]
  IC50: 18.2 nM

## COc1nc(-c2cccc(-c3cccc(-c4nnc(Nc5cccc(CNCCO)c5)o4)c3C)c2C)ccc1CNCCNC(C)=O
[1]
  IC50: 23.5 nM
[2]
  Activity: 66%

## COc1nc(O[C@H]2CCc3c(-c4cccc(C(=O)Nc5ccc(CNCCNC(C)=O)c(C(F)(F)F)n5)c4Cl)cccc32)c(Cl)cc1CNCCNC(C)=O
[1]
  IC50: 18.8 nM

## COc1nc(O[C@H]2CCc3c(-c4cccc(C(=O)Nc5ccc(CNCCO)c(C(F)(F)F)n5)c4Cl)cccc32)c(Cl)cc1CNCCO
[1]
  IC50: 16.7 nM

## Cc1c(-c2cccc(-c3nnc(Nc4cccc(CNCCO)c4)o3)c2)cccc1-c1nnc(Nc2cccc(CN3CC[C@@H](O)C3)c2)o1
[1]
  IC50: 51.6 nM

## CC(=O)NCCNCc1cccc(Nc2nnc(-c3cccc(-c4cccc(-c5nnc(Nc6cccc(CNCCNC(C)=O)c6)o5)c4C)c3C)o2)c1
[1]
  IC50: 58.8 nM

## COc1nc(O[C@H]2CCc3c(-c4cccc(C(=O)Nc5ccc(CNC[C@@H]6CCC(=O)N6)cn5)c4Cl)cccc32)c(Cl)cc1CNC[C@@H]1CCC(=O)N1
NCM460
  Activity: Non-Toxic
CT26 [6]
  Activity: Dose-Dependent Effect
[7]
  inhibition: Active
CT26 [8]
  Activity: Dose-Dependent Effect
L02
  Activity: Non-Toxic
[9]
  inhibition: Active
[10]
  Kd: 790 nM
[11]
  half-life: 5.3 h
[12]
  Activity: Non-Toxic
[13]
  Tmax: 1.8 min
[14]
  inhibition: Dose-Dependent Effect
[15]
  half-life: 5.8 h
[16]
  Tmax: 0.3 h
[17]
  inhibition: Tde
[1]
  IC50: 1.8 nM
[18]
  inhibition: Dose-Dependent Effect
[19]
  Kd: 24 nM
CT26 [20]
  inhibition: Active
CT26 [21]
  inhibition in vivo at 20 mg/kg: 51%
[2]
  Activity: 80%
[22]
  AUC(0-t): 73.1 ng·h/mL
[23]
  Cmax: 22.6 ng/mL
MDA-MB-231
  EC50: ~800 nM
[24]
  inhibition: Active
CT26 [25]
  Activity: Active
[26]
  Cmax: 2370 ng/mL
[27]
  bioavailability: 1.6%
CT26 [28]
  inhibition in vivo at 10 mg/kg: 37%
[29]
  AUC(0-t): 890 ng·h/mL
[30]
  Activity: Non-Toxic

## Cc1c(-c2ccccc2)cccc1-c1nnc(Nc2cccc(CNCCO)c2)o1
[1]
  IC50: 27.8 nM

## COc1nc(-c2cccc(-c3cccc(-c4nnc(Nc5cccc(CNCCO)c5)o4)c3C)c2C)ccc1CNCCO
[1]
  IC50: 13.9 nM
[2]
  inhibition: Active

## Cc1c(C(=O)Nc2ccc(CNCCO)cc2)cccc1-c1cccc(-c2nnc(Nc3cccc(CNCCO)c3)o2)c1C
[1]
  IC50: 127 nM

## CC(=O)NCCNCc1ccc(NC(=O)c2cccc(-c3cccc(-c4nnc(Nc5cccc(CNCCO)c5)o4)c3C)c2C)nc1
[1]
  IC50: 42 nM

## Cc1c(-c2nnc(Nc3ccc(CNCCO)cc3)o2)cccc1-c1cccc(-c2nnc(Nc3cccc(CNCCO)c3)o2)c1C
[1]
  IC50: 714 nM

## Cc1c(-c2ccc(CNCCO)cc2)cccc1-c1cccc(-c2nnc(Nc3cccc(CNCCO)c3)o2)c1C
[1]
  IC50: 37.2 nM

## Cc1c(C(=O)Nc2ccc(CNCCO)cn2)cccc1-c1cccc(-c2nnc(Nc3cccc(CNCCO)c3)o2)c1C
[1]
  IC50: 14.5 nM

## CC(=O)NCCNCc1ccc(Nc2nnc(-c3cccc(-c4cccc(-c5nnc(Nc6cccc(CNCCNC(C)=O)c6)o5)c4C)c3C)o2)cc1
[1]
  IC50: 893 nM

## Cc1c(-c2cccc(-c3ccc(CNCCO)cc3)c2)cccc1-c1nnc(Nc2cccc(CNCCO)c2)o1
[1]
  IC50: 42 nM

## COc1nc(O[C@H]2CCc3c(-c4cccc(C(=O)Nc5ccc(CNCCNC(C)=O)cn5)c4Cl)cccc32)c(Cl)cc1CNCCNC(C)=O
[1]
  IC50: 4.1 nM
[2]
  inhibition: Active
